Results published in the supplement of paper PMC10307832.

What was measured:
Test in all cases: relative viability (nuclei count vs DMSO), 5 days (fraction); higher = more cells survive
QS11 + Bortezomib = compound: C1CC2=C(C1)C=C(C=C2)OC3=NC(=C4C(=N3)N(C=N4)CC5=CC=C(C=C5)C6=CC=CC=C6)N[C@@H](CC7=CC=CC=C7)CO [QS11] + CC(C)C[C@H](NC(=O)[C@H](Cc1ccccc1)NC(=O)c1cnccn1)B(O)O [Bortezomib] (partner 0.002 µM)
How it was run: (§1)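 Lung cancer cell lines were pin-tool dosed in 1536-well plates on the day after seeding, with either a lone drug or a fixed anchor-drug dose plus five library-drug doses (not always all listed) in √10 steps. Nuclei were counted on 4× images after 5 days. Relative viability is the ratio of treated-well to vehicle-well nuclei counts, with each value a median of duplicate plates.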

QS11 + Pictilisib = compound: C1CC2=C(C1)C=C(C=C2)OC3=NC(=C4C(=N3)N(C=N4)CC5=CC=C(C=C5)C6=CC=CC=C6)N[C@@H](CC7=CC=CC=C7)CO [QS11] + CS(=O)(=O)N1CCN(Cc2cc3nc(-c4cccc5[nH]ncc45)nc(N4CCOCC4)c3s2)CC1 [Pictilisib] (partner 1 µM)
How it was run: as §1

AZ628 + Phenformin = compound: CC1=C(C=C(C=C1)NC(=O)C2=CC(=CC=C2)C(C)(C)C#N)NC3=CC4=C(C=C3)N=CN(C4=O)C [AZ628] + N=C(N)NC(=N)NCCc1ccccc1 [Phenformin] (partner 250 µM)
How it was run: as §1

AZ628 + Decitabine = compound: CC1=C(C=C(C=C1)NC(=O)C2=CC(=CC=C2)C(C)(C)C#N)NC3=CC4=C(C=C3)N=CN(C4=O)C [AZ628] + Nc1ncn([C@H]2C[C@H](O)[C@@H](CO)O2)c(=O)n1 [Decitabine] (partner 2 µM)
How it was run: as §1

| Cell Line | relative viability (QS11 + Bortezomib; first compound 0.08 µM) | relative viability (QS11 + Bortezomib; first compound 0.253 µM) | relative viability (QS11 + Bortezomib; first compound 2.53 µM) | relative viability (QS11 + Bortezomib; first compound 8 µM) | relative viability (QS11 + Pictilisib; first compound 0.08 µM) | relative viability (QS11 + Pictilisib; first compound 0.253 µM) | relative viability (QS11 + Pictilisib; first compound 2.53 µM) | relative viability (QS11 + Pictilisib; first compound 8 µM) | relative viability (AZ628 + Phenformin; first compound 0.08 µM) | relative viability (AZ628 + Phenformin; first compound 0.253 µM) | relative viability (AZ628 + Phenformin; first compound 0.8 µM) | relative viability (AZ628 + Phenformin; first compound 2.53 µM) | relative viability (AZ628 + Phenformin; first compound 8 µM) | relative viability (AZ628 + Decitabine; first compound 0.08 µM) | relative viability (AZ628 + Decitabine; first compound 0.253 µM) | relative viability (AZ628 + Decitabine; first compound 0.8 µM) | relative viability (AZ628 + Decitabine; first compound 2.53 µM) | relative viability (AZ628 + Decitabine; first compound 8 µM) | relative viability (QS11 + Bortezomib; first compound 0.8 µM) | relative viability (QS11 + Pictilisib; first compound 0.8 µM) |
| --- | --- | --- | --- | --- | --- | --- | --- | --- | --- | --- | --- | --- | --- | --- | --- | --- | --- | --- | --- | --- |
| HARA | 1.25 | 1.19 | 1.05 | 1.24 | 0.358 | 0.46 | 0.383 | 0.36 | 0.527 | 0.402 | 0.409 | 0.465 | 0.376 | 0.414 | 0.441 | 0.461 | 0.448 | 0.289 | – | – |
| NCI-H1755 | 0.953 | 0.893 | 0.76 | 0.61 | 0.466 | 0.404 | 0.408 | 0.393 | 0.614 | 0.626 | 0.585 | 0.589 | 0.46 | 0.763 | 0.691 | 0.718 | 0.73 | 0.676 | 0.605 | 0.41 |
| NCI-H460 | 1.04 | 1.13 | 0.973 | 0.345 | 0.301 | 0.351 | 0.352 | 0.473 | 0.52 | 0.511 | 0.452 | 0.404 | 0.189 | 0.512 | 0.456 | 0.38 | 0.532 | 0.165 | 0.819 | 0.532 |
| NCI-H3122 | 1.03 | 1.1 | 1.07 | 0.864 | 0.566 | 0.693 | 0.71 | 0.722 | 0.366 | 0.288 | 0.305 | 0.31 | 0.289 | 0.307 | 0.21 | 0.221 | 0.239 | 0.161 | 0.67 | 0.467 |
| COR-L 105 | 0.78 | 0.814 | 0.717 | 0.519 | 0.346 | 0.359 | 0.372 | 0.347 | 0.541 | 0.483 | 0.4 | 0.488 | 0.323 | 0.74 | 0.692 | 0.668 | 0.613 | 0.559 | 0.772 | 0.34 |
| NCI-H2087 | 0.766 | 0.776 | 0.636 | 0.48 | 0.799 | 0.836 | 1.03 | 1.13 | 0.348 | 0.289 | 0.246 | 0.27 | 0.169 | 0.267 | 0.153 | 0.184 | 0.137 | 0.146 | 0.677 | 0.926 |
| NCI-H1792 | – | 1.06 | 1.01 | 1.07 | – | 0.238 | 0.235 | 0.307 | 0.309 | 0.258 | 0.225 | 0.158 | 0.115 | 0.605 | 0.532 | 0.514 | 0.476 | 0.121 | 0.684 | 0.289 |
| HCC-366 | 1.28 | 0.688 | 0.808 | 0.318 | 0.138 | 0.133 | 0.202 | 0.0869 | 0.585 | 0.572 | 0.554 | 0.598 | 0.499 | 0.345 | 0.313 | 0.269 | 0.292 | 0.182 | – | – |
| NCI-H2347 | 1.11 | 1.19 | 0.997 | 1.04 | 0.537 | 0.715 | 0.606 | 0.666 | 0.267 | 0.392 | 0.493 | 0.324 | 0.205 | 0.522 | 0.605 | 0.582 | 0.613 | 0.36 | 0.757 | 0.699 |
| 201T | 1.12 | 1.09 | 1.16 | 0.961 | 0.669 | 0.599 | 0.672 | 0.611 | 0.507 | 0.455 | 0.245 | 0.438 | 0.445 | 0.869 | 0.859 | 0.874 | 0.911 | 0.858 | 0.921 | 0.634 |
| NCI-H1993 | 0.959 | 1 | 1.35 | 0.998 | 0.843 | 0.935 | 0.875 | 0.635 | 0.46 | 0.562 | 0.545 | 0.523 | 0.537 | 0.587 | 0.518 | 0.639 | 0.463 | 0.55 | 1.04 | 0.799 |
| NCI-H2009 | 0.999 | 0.898 | 0.802 | 0.755 | 0.726 | 0.776 | 0.711 | 0.626 | 0.447 | 0.395 | 0.283 | 0.346 | 0.273 | 0.404 | 0.36 | 0.313 | 0.32 | 0.291 | 0.739 | 0.747 |
| EMC-BAC-2 | 1.06 | 1.05 | 0.985 | 0.677 | 0.535 | 0.486 | 0.604 | 0.442 | 0.584 | 0.57 | 0.432 | 0.602 | 0.505 | 0.944 | 0.84 | 0.874 | 0.749 | 0.465 | 0.941 | 0.569 |
| NCI-H2023 | 0.917 | 0.996 | 0.994 | 0.898 | 0.255 | 0.224 | 0.309 | 0.283 | 0.387 | 0.392 | 0.368 | 0.381 | 0.293 | 0.292 | 0.229 | 0.24 | 0.228 | 0.252 | 0.877 | 0.291 |
| RERF-LC-KJ | 1.05 | 1.1 | 0.932 | 0.941 | 0.628 | 0.563 | 0.517 | 0.497 | 0.432 | 0.424 | 0.392 | 0.401 | 0.31 | 0.698 | 0.708 | 0.644 | 0.647 | 0.688 | 0.956 | 0.506 |
| H3255 | 0.813 | 0.782 | 0.761 | 0.746 | 0.37 | 0.523 | 0.541 | 0.537 | 0.41 | 0.33 | 0.337 | 0.393 | 0.302 | 0.723 | 0.504 | 0.567 | 0.51 | 0.379 | – | – |
